Entries after “also recorded” stand apart in the source; their conditions may differ. Structures can show the parent of a compound that is named as a salt. Where two headings read alike, the source gives them in different places. Where a SMILES comes first, the peptide text is derived from it. Where no end group is shown, it is not given here. The star is where a group is joined. Stearoyl = CCCCCCCCCCCCCCCCCC(=O)*
Assays:
[1] = Toxicity Study of FP-nanoparticle in C3H mice (hematological parameters, hepatic and renal function); format: in vivo; settings: tail vein three times every other day
Method: C3H mice were injected with a nanoparticle containing a peptide (either the FUS-1 peptide or a nonspecific peptide), and various toxicological parameters were subsequently analyzed at 1, 2 and 3 weeks after injection. Control mice (“Group IX”) were injected with PBS. The toxicological parameters evaluated included hematological parameters (i.e., red blood cell counts “RBC” and white blood cell counts “WBC”), analysis of hepatic function (i.e., AST, ALT, and total bilirubin analysis) and analysis of renal function (i.e., evaluation of creatinine levels). Either DOTAP:cholesterol nanoparticles or DOPC (neutral liposome) nanoparticles were used. The amount of peptide-containing nanoparticle administered to the C3H mice varied from 2 mg/kg to 5 mg/kg. These studies are summarized below in Table V.

[2] = system: normal bronchial epithelial CCD16 cells; experiment: Cell growth / cytotoxicity in normal cells, XTT assay; format: cell-based, human; settings: at the IC80 doses to all other NSCLC cells
[3] = system: H1299 cells; experiment: Soft agar colony assay; format: cell-based, human
[4] = biological target: T1, c-Abl tyrosine kinase (Abelson murine leukemia virus, UniProt P00521); format: biochemical; settings: for inhibition of Abl tyrosine kinase: commercial / bacterially purified Abl kinase, GST-Crk substrate
T1 construct: truncated commercial (New England Bio-Labs) cAbl tyrosine kinase (45 kD) containing only the SH2 and SH1 domains; purchased New England Bio-Labs; host or cells: bacteria
Method: A zero peptide control, a DMSO control, a DMSO plus stearic acid control, and 20, 25, 30, 35, 40, 45, 50 and 55:M of peptide were evaluated.
After 30 minutes of incubation at 30 degrees, samples were boiled with 2×SDS sample buffer and run on an 8% SDS PAGE gel. The gel was dried and exposed to a phosphoimager.
GST-Crk phosphorylation was quantified by using a phosphoimager.

[5] = system: Rat-1 cells transformed with an activated c-Abl tyrosine kinase; experiment: Foci formation in Rat-1 cells transformed by c-Abl; format: cell-based
Text: Rat-1 SH2 cells express GFP as a marker. A fluorescent photo was taken of green fluorescing Rat-1 SH2 cells treated with peptide. A phase contrast photo of the field was produced. […] (Rat-1 SH2+M74) and (Rat-1 SH2+ stearic acid) were imaged.

[6] = 2 mg/kg, 1st week after last treatment
[7] = 2 mg/kg, 2nd week after last treatment
[8] = 2 mg/kg, 3rd week after last treatment
[9] = 5 mg/kg, 1st week after last treatment
[10] = 5 mg/kg, 2nd week after last treatment
[11] = 5 mg/kg, 3rd week after last treatment
[12] = Rat-1 cells transformed with activated c-Abl

T1 sequence (P00521 1-398): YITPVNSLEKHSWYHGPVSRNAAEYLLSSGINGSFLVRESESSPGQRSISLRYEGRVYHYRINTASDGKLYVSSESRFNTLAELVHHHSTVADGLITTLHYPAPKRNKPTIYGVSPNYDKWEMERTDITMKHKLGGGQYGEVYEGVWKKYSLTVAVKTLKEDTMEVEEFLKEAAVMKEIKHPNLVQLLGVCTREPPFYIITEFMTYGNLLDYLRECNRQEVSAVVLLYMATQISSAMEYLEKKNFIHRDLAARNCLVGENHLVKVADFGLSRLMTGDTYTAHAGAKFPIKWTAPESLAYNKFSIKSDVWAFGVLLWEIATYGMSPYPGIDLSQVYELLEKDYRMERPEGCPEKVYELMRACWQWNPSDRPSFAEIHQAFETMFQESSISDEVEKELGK

CCCCCCCCCCCCCCCCCC(=O)N[C@@H](CC(=O)O)C(=O)N[C@@H](CC(C)C)C(=O)N[C@H](C(=O)N[C@@H](CCC(=O)O)C(=O)N[C@@H](CCC(=O)O)C(=O)N[C@@H](C)C(=O)N[C@@H](C)C(=O)N[C@@H](CO)C(=O)N[C@@H](CCCNC(=N)N)C(=O)N1CCC[C@H]1C(=O)N[C@H](C(=O)N[C@@H](CC(=O)O)C(=O)N[C@@H](C)C(=O)N[C@H](C(=O)N1CCC[C@H]1C(=O)N[C@@H](CCC(=O)O)C(=O)N[C@@H](CCC(N)=O)C(=O)N[C@H](C(=O)N[C@@H](CCCCN)C(=O)N[C@@H](C)C(=O)N[C@@H](C)C(=O)NCC(=O)N[C@@H](C)C(=O)N[C@@H](Cc1ccc(O)cc1)C(=O)O)C(C)C)C(C)C)C(C)C)[C@@H](C)CC [NSP] (Stearoyl-DLIEEAASRPVDAVPEQVKAAGAY-OH)
ALT [1, 6]: 76 ± 7.87 U/L
AST [1, 6]: 183 ± 6 U/L
Creatinine [1, 6]: 0.6 ± 0 mg/dL
Total Bilirubin [1, 6]: 2.7 ± 0 mg/dL
ALT [1, 7]: 61.67 ± 5.44 U/L
AST [1, 7]: 146 ± 45.31 U/L
Creatinine [1, 7]: 0.5 ± 0.10 mg/dL
RBC [1, 7]: 6.23 ± 0.33 ×10^9
Total Bilirubin [1, 7]: 1.13 ± 1.09 mg/dL
WBC [1, 7]: 1.93 ± 0.58 ×10^9
ALT [1, 8]: 58.67 ± 12.55 U/L
AST [1, 8]: 94.67 ± 28.59 U/L
Creatinine [1, 8]: 0.38 ± 0.09 mg/dL
RBC [1, 8]: 5.7 ± 1.14 ×10^9
Total Bilirubin [1, 8]: 0.6 ± 0.42 mg/dL
WBC [1, 8]: 1.93 ± 0.45 ×10^9
ALT [1, 9]: 91.5 ± 7.5 U/L
AST [1, 9]: 148.5 ± 13.5 U/L
Creatinine [1, 9]: 0.317 ± 0.02 mg/dL
Total Bilirubin [1, 9]: 1.8 ± 1.2 mg/dL
ALT [1, 10]: 54 ± 9.93 U/L
AST [1, 10]: 96.33 ± 20.24 U/L
Creatinine [1, 10]: 0.35 ± 0.02 mg/dL
RBC [1, 10]: 7.47 ± 2.28 ×10^9
Total Bilirubin [1, 10]: 0.7 ± 0.28 mg/dL
WBC [1, 10]: 1.6 ± 0.24 ×10^9
ALT [1, 11]: 50 ± 6.16 U/L
AST [1, 11]: 83.67 ± 23.63 U/L
Creatinine [1, 11]: 0.32 ± 0.04 mg/dL
RBC [1, 11]: 6.67 ± 0.69 ×10^9
Total Bilirubin [1, 11]: 0.43 ± 0.12 mg/dL
WBC [1, 11]: 1.6 ± 0.14 ×10^9

CCCCCCCCCCCCCCCCCC(=O)N[C@@H](CCCCN)C(=O)N[C@@H](CC(C)C)C(=O)N[C@@H](CCCNC(=N)N)C(=O)N[C@@H](CCCNC(=N)N)C(=O)N[C@H](C(=O)N[C@@H](Cc1c[nH]cn1)C(=O)N[C@@H](CCCCN)C(=O)N[C@@H](CC(N)=O)C(=O)N[C@@H](CC(C)C)C(=O)N[C@H](C(=O)N1CCC[C@H]1C(=O)N[C@@H](CCC(N)=O)C(=O)NCC(=O)N[C@H](C(=O)N[C@H](C(=O)N[C@@H](CCCCN)C(=O)N[C@@H](CC(C)C)C(=O)N[C@@H](CC(=O)O)C(=O)N[C@@H](Cc1c[nH]cn1)C(=O)N1CCC[C@H]1C(=O)N[C@@H](CCCNC(=N)N)C(=O)O)C(C)C)[C@@H](C)CC)[C@@H](C)CC)C(C)C [st-wt-FP] (Stearoyl-KLRRVHKNLIPQGIVKLDHPR-OH)
cytotoxicity in normal cells [2]: No significant cytotoxicity

Cc1ccc(NC(=O)c2ccc(CN3CCN(C)CC3)cc2)cc1Nc1nccc(-c2cccnc2)n1 [imatinib, imatinib mesylate]
colony-forming ability ([3]; 1-10 uM, dose-dependent, number and size of colonies): strongly inhibited
size of colonies ([3]; 10:M, compared to untreated cells): reduced in size
number of colonies ([3]; 10:M, compared to untreated control): almost complete reduction in the number of colonies

CCCCCCCCCCCCCCCCCC(=O)O [stearic acid]
inhibition of Abl tyrosine kinase [4]: no inhibitory effects; also recorded: not inhibitory
inhibition of Abl tyrosine kinase ([4]; listed as Stearate): not inhibitory
foci formation ([5]; 30:M, Rat-1 SH2 cells): no effect
foci formation [5, 12]: no effects

Non-stearate FUS1 peptide: Fus1 peptide sequence without the stearic acid moiety (KLRRVHKNLIPQGIVKLDHR)
inhibition of Abl tyrosine kinase activity ([4]; 0-60 uM, 45 kD Abl tyrosine kinase, GST-Crk phosphorylation): did not inhibit
inhibition of Abl tyrosine kinase [4]: did not inhibit
inhibition of Abl tyrosine kinase ([4]; listed as Fus1 peptide lacking the stearate N-terminal moiety): inactive

Stearic acid-KLRRVHKNLIPQGIVKLDHR (Stearoyl-KLRRVHKNLIPQGIVKLDHR) [stearate-Fus1 peptide]
inhibition of Abl tyrosine kinase [4]: strongly inhibitory
foci formation ([5]; 40 μM): blocked foci formation
foci formation [5, 12]: blocked foci formation

— US8859727B2, “Bioactive FUS1 peptides and nanoparticle-polypeptide complexes” (Board of Regents, The University of Texas System, priority 2005, dated 2014)
